# Source: ChEMBL document CHEMBL4513149, “CO-ADD screening of MMV (CH) - MMV compounds” (2021)
# Columns and labels:
# [1] = test system: Escherichia coli; conditions: ASSAY_TEST Inhibition of Bacterial Growth; detection method Absorption (OD600); MEDIA CAMHB; plate type 384well; NBS; CORNING #3640; time 18 hr
# Description: Antibacterial activity against Escherichia coli ATCC 25922 (CO-ADD:GN_001); MIC in CAMBH media using NBS plates, by OD(600)
# [2] = test system: Pseudomonas aeruginosa; conditions: ASSAY_TEST Inhibition of Bacterial Growth; detection method Absorption (OD600); MEDIA CAMHB; plate type 384well; NBS; CORNING #3640; time 18 hr
# Description: Antibacterial activity against Pseudomonas aeruginosa ATCC 27853 (CO-ADD:GN_042); MIC in CAMBH media using NBS plates, by OD(600)
# [3] = test system: Staphylococcus aureus; conditions: ASSAY_TEST Inhibition of Bacterial Growth; detection method Absorption (OD600); MEDIA CAMHB; plate type 384well; NBS; CORNING #3640; time 18 hr
# Description: Antibacterial activity against Staphylococcus aureus MRSA ATCC 43300 (CO-ADD:GP_020); MIC in CAMBH media, using NBS plates, by OD(600)
# [4] = test system: Cryptococcus neoformans
# Description: Antifungal activity against Cryptococcus neoformans H99 ATCC 208821 (CO-ADD:FG_002); MIC in YNB media using NBS plates, by Resazurin OD(600-570)
# [5] = test system: Candida albicans; conditions: ASSAY_TEST Inhibition of Fungal Growth; detection method Absorption (OD530); plate type 384well; NBS; CORNING #3640
# Description: Antifungal activity against Candida albicans ATCC 90028 (CO-ADD:FG_001); MIC in YNB media using NBS plates, by OD630
# [6] = test system: Klebsiella pneumoniae; conditions: ASSAY_TEST Inhibition of Bacterial Growth; detection method Absorption (OD600); MEDIA CAMHB; plate type 384well; NBS; CORNING #3640; time 18 hr
# Description: Antibacterial activity against Klebsiella pneumoniae MDR ATCC 70063 (CO-ADD:GN_003); MIC in CAMBH media using NBS plates, by OD(600)
# [7] = test system: HEK293; assay: cells; type: functional; conditions: Homo sapiens, ATCC CRL1573, HEK293; ASSAY_TEST Inhibition of Cell Viability; detection method Resazurin; Fluorescence (ex560/em590); MEDIA DMEM with 10% FBS; plate type 384well; TC; CORNING #3712; time 18 hr
# [8] = test system: Acinetobacter baumannii; conditions: ASSAY_TEST Inhibition of Bacterial Growth; detection method Absorption (OD600); MEDIA CAMHB; plate type 384well; NBS; CORNING #3640; time 18 hr
# Description: Antibacterial activity against Acinetobacter baumannii ATCC 19606 (CO-ADD:GN_034); MIC in CAMBH media using NBS plates, by OD600
MIC [1],MIC [2] [µM],MIC [3] [µM],MIC [4] [µM],MIC [5] [µM],MIC [6] [µM],MIC [8] [µM],SMILES,CC50 [7] [µM]
>10 µM,>10,10,> 10,>10,>10,>10,COc1cc(NC(C)CCCN)c2ncccc2c1.O=P(O)(O)O.O=P(O)(O)O (stereo unspecified) [PRIMAQUINE PHOSPHATE],> 10
<=0.0781 uM,0.625,0.625,> 10,>10,2.5,2.5,C[C@H]1COc2c(N3CCN(C)CC3)c(F)cc3c(=O)c(C(=O)O)cn1c23.C[C@H]1COc2c(N3CCN(C)CC3)c(F)cc3c(=O)c(C(=O)O)cn1c23.O [LEVOFLOXACIN],> 10
